Test results from patent US9453051B2, “Cyclosporin derivatives” (priority 2011, dated 2016).

What was measured:
calcineurin = calcineurin (Homo sapiens, UniProt P62937+P63098+Q08209); experiment: Inhibition of the phosphatase activity of calcineurin (scintillation-proximity-assay, in presence of Cyp18);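 note: calcineurin dephosphorylation of a ³³P-labelled RII phosphopeptide, captured on streptavidin-coated wells and read by scintillation counting, with uninhibited enzyme activity taken as 100%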
Protocol: The measurement was carried out by incubation of 10 μMol of the biotinylated phosphopeptide [sequence]pSer-Val-Ala-Ala-Glu (MW=2192.0) (RH-peptide) marked with ^33P in a sample buffer (40 mM Tris-HCl, pH 7.5, 100 mM NaCl, 6 mM MgCl2, 0.5 mM dithiothreitol, 1 mM. CaCl2, 0.1 mg/ml bovine serum albumin) in presence of 50 nM calmodulin and 1.32 nM calcineurin at 30° C. for 20 min in a 96 well micro titer plate (Costar, Bodenheim, Germany). The total volume of the assay/well was 100 μl. After this reaction time a 90 μl aliquot of the reaction mixture was transferred into a scintillation cavity coated with streptavidin and incubated for 20 min at 22° C. After a washing step the RII phosphopeptide-associated ^33P radioactivity was measured in a MicroBeta Top Counter (Wallac) and the enzyme activity was indicated as average value of three measurements±S.D. The uninhibited dephosphorylation activity has been set on 100%.

[1] = molecular target: recombinant human wild type Cyp18 (Cyp18 wt) (Homo sapiens, UniProt P62937); experiment: biochemical
Chain of recombinant human wild type Cyp18 (Cyp18 wt) (P62937 whole entry): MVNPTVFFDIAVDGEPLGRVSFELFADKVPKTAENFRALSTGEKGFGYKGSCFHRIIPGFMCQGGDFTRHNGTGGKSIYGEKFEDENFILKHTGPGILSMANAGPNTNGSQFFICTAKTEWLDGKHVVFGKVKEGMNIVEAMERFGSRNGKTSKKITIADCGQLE
Protocol: The determination was performed on a UV/Vis spectrometer at 10° C. cuvette temperature, whereby the device is operated at 390 nm in kinetic-mode (measurement buffer: 35 mM HEPES/NaOH pH 7.8 (AppliChem A1069)). 0.58 nM recombinant human wild type Cyp18 (Cyp18 wt), 2.33 nM bovine serum albumin (BSA) and 1 mg/ml chymotrypsin (Merck) solved in 35 mM HEPES/NaOH pH 7.8 as well as different concentration of each test substance, where appropriate, were in the cuvette. The reaction was started with a stock solution of Suc-Ala-Ala-Pro-Phe-4-nitroanilide (Bachem, 10 mg/ml DMSO) as substrate so that a final substrate concentration of 32 μM resulted. The extinction-time-curves were evaluated after expiry of the fast phase of the reaction i.e. after approximately 60 seconds according to a rate equation of a first-order reaction.

| SMILES | IC50 (calcineurin) [µM] | IC50 [1] [µM] |
| --- | --- | --- |
| CC[C@@H]1NC(=O)[C@H]([C@H](O)[C@H](C)CC2=N[C@@H]3CS[C@H](CCCCC(=O)O)[C@@H]3N2)N(C)C(=O)[C@H](C(C)C)N(C)C(=O)[C@H](CC(C)C)N(C)C(=O)[C@H](CC(C)C)N(C)C(=O)[C@@H](C)NC(=O)[C@H](C)NC(=O)[C@H](CC(C)C)N(C)C(=O)[C@H](C(C)C)NC(=O)[C@H](CC(C)C)N(C)C(=O)CN(C)C1=O [Compound 4] | > 10 | 0.264 |
| CC[C@@H]1NC(=O)[C@H]([C@H](O)[C@H](C)Cc2nc3cc(C(=O)O)ccc3o2)N(C)C(=O)[C@H](C(C)C)N(C)C(=O)[C@H](CC(C)C)N(C)C(=O)[C@H](CC(C)C)N(C)C(=O)[C@@H](C)NC(=O)[C@H](C)NC(=O)[C@H](CC(C)C)N(C)C(=O)[C@H](C(C)C)NC(=O)[C@H](CC(C)C)N(C)C(=O)CN(C)C1=O [Compound 6] |  | 0.7 |
| CC[C@@H]1NC(=O)[C@H]([C@H](O)[C@H](C)Cc2nc3cc(/C=C/C(=O)OC(C)(C)C)ccc3[nH]2)N(C)C(=O)[C@H](C(C)C)N(C)C(=O)[C@H](CC(C)C)N(C)C(=O)[C@H](CC(C)C)N(C)C(=O)[C@@H](C)NC(=O)[C@H](C)NC(=O)[C@H](CC(C)C)N(C)C(=O)[C@H](C(C)C)NC(=O)[C@H](CC(C)C)N(C)C(=O)CN(C)C1=O [Compound 14] | 3.2 | 0.0364 |
| CC[C@@H]1NC(=O)[C@H]([C@H](O)[C@H](C)Cc2nc3nc(S)nc(S)c3[nH]2)N(C)C(=O)[C@H](C(C)C)N(C)C(=O)[C@H](CC(C)C)N(C)C(=O)[C@H](CC(C)C)N(C)C(=O)[C@@H](C)NC(=O)[C@H](C)NC(=O)[C@H](CC(C)C)N(C)C(=O)[C@H](C(C)C)NC(=O)[C@H](CC(C)C)N(C)C(=O)CN(C)C1=O [Compound 16] | 7.5 | 0.0151 |
| CC[C@@H]1NC(=O)[C@H]([C@H](O)[C@H](C)Cc2nc3cc(S(=O)(=O)O)cc(F)c3[nH]2)N(C)C(=O)[C@H](C(C)C)N(C)C(=O)[C@H](CC(C)C)N(C)C(=O)[C@H](CC(C)C)N(C)C(=O)[C@@H](C)NC(=O)[C@H](C)NC(=O)[C@H](CC(C)C)N(C)C(=O)[C@H](C(C)C)NC(=O)[C@H](CC(C)C)N(C)C(=O)CN(C)C1=O [Compound 48] | > 10 | 0.0087 |
| CC[C@@H]1NC(=O)[C@H]([C@H](O)[C@H](C)Cc2nc3cc(C(=O)N4CCCC4C(=O)N4CCC[C@H]4C(=O)N4CCCC4C(=O)N4CCC[C@H]4C(=O)N4CCCC4C(=O)N4CCC[C@H]4C(=O)O)ccc3[nH]2)N(C)C(=O)[C@H](C(C)C)N(C)C(=O)[C@H](CC(C)C)N(C)C(=O)[C@H](CC(C)C)N(C)C(=O)[C@@H](C)NC(=O)[C@H](C)NC(=O)[C@H](CC(C)C)N(C)C(=O)[C@H](C(C)C)NC(=O)[C@H](CC(C)C)N(C)C(=O)CN(C)C1=O (some centres unmarked) [Compound 49] | > 10 | 0.0309 |
| CC[C@@H]1NC(=O)[C@H]([C@H](O)[C@H](C)Cc2nc3cc(C(=O)NCCC(=O)NCCC(=O)NCCC(=O)NCCC(=O)NCCC(=O)NCCC(=O)O)ccc3[nH]2)N(C)C(=O)[C@H](C(C)C)N(C)C(=O)[C@H](CC(C)C)N(C)C(=O)[C@H](CC(C)C)N(C)C(=O)[C@@H](C)NC(=O)[C@H](C)NC(=O)[C@H](CC(C)C)N(C)C(=O)[C@H](C(C)C)NC(=O)[C@H](CC(C)C)N(C)C(=O)CN(C)C1=O [Compound 51] | > 10 | 0.0073 |
| CC[C@@H]1NC(=O)[C@H]([C@H](O)[C@H](C)Cc2nc3cc(C(=O)NCCN(C)C)ccc3[nH]2)N(C)C(=O)[C@H](C(C)C)N(C)C(=O)[C@H](CC(C)C)N(C)C(=O)[C@H](CC(C)C)N(C)C(=O)[C@@H](C)NC(=O)[C@H](C)NC(=O)[C@H](CC(C)C)N(C)C(=O)[C@H](C(C)C)NC(=O)[C@H](CC(C)C)N(C)C(=O)CN(C)C1=O [Compound 52] | > 10 | 0.008 |
| CC[C@@H]1NC(=O)[C@H]([C@H](O)[C@H](C)Cc2nc3cc(C(=O)NCCN4CCOCC4)ccc3[nH]2)N(C)C(=O)[C@H](C(C)C)N(C)C(=O)[C@H](CC(C)C)N(C)C(=O)[C@H](CC(C)C)N(C)C(=O)[C@@H](C)NC(=O)[C@H](C)NC(=O)[C@H](CC(C)C)N(C)C(=O)[C@H](C(C)C)NC(=O)[C@H](CC(C)C)N(C)C(=O)CN(C)C1=O [Compound 53] | 4.2 | 0.0127 |
| CC[C@@H]1NC(=O)[C@H]([C@H](O)[C@H](C)Cc2nc3cc(C(=O)NCCN4CCN(C(=O)CCC(=O)O)CC4)ccc3[nH]2)N(C)C(=O)[C@H](C(C)C)N(C)C(=O)[C@H](CC(C)C)N(C)C(=O)[C@H](CC(C)C)N(C)C(=O)[C@@H](C)NC(=O)[C@H](C)NC(=O)[C@H](CC(C)C)N(C)C(=O)[C@H](C(C)C)NC(=O)[C@H](CC(C)C)N(C)C(=O)CN(C)C1=O [Compound 54] | 7.2 | 0.0071 |
| CC[C@@H]1NC(=O)[C@H]([C@H](O)[C@H](C)Cc2nc3cccc(C(=O)O)c3n2C)N(C)C(=O)[C@H](C(C)C)N(C)C(=O)[C@H](CC(C)C)N(C)C(=O)[C@H](CC(C)C)N(C)C(=O)[C@@H](C)NC(=O)[C@H](C)NC(=O)[C@H](CC(C)C)N(C)C(=O)[C@H](C(C)C)NC(=O)[C@H](CC(C)C)N(C)C(=O)CN(C)C1=O [Compound 55] | > 10 | 0.209 |
| CC[C@@H]1NC(=O)[C@H]([C@H](O)[C@H](C)Cc2nc3c(C(=O)O)cccc3n2C)N(C)C(=O)[C@H](C(C)C)N(C)C(=O)[C@H](CC(C)C)N(C)C(=O)[C@H](CC(C)C)N(C)C(=O)[C@@H](C)NC(=O)[C@H](C)NC(=O)[C@H](CC(C)C)N(C)C(=O)[C@H](C(C)C)NC(=O)[C@H](CC(C)C)N(C)C(=O)CN(C)C1=O [Compound 56] | > 10 | > 1 |
| CC[C@@H]1NC(=O)[C@H]([C@H](O)[C@H](C)Cc2nc3cc(C(=O)N[C@@H](CCC(=O)OCc4ccccc4)C(=O)N[C@@H](CCC(=O)OCc4ccccc4)C(N)=O)ccc3[nH]2)N(C)C(=O)[C@H](C(C)C)N(C)C(=O)[C@H](CC(C)C)N(C)C(=O)[C@H](CC(C)C)N(C)C(=O)[C@@H](C)NC(=O)[C@H](C)NC(=O)[C@H](CC(C)C)N(C)C(=O)[C@H](C(C)C)NC(=O)[C@H](CC(C)C)N(C)C(=O)CN(C)C1=O [Compound 57] |  | 0.0169 |
| CC[C@@H]1NC(=O)[C@H]([C@H](O)[C@H](C)Cc2nc3cc(C(=O)N[C@@H](CS)C(=O)N[C@@H](C)C(N)=O)ccc3[nH]2)N(C)C(=O)[C@H](C(C)C)N(C)C(=O)[C@H](CC(C)C)N(C)C(=O)[C@H](CC(C)C)N(C)C(=O)[C@@H](C)NC(=O)[C@H](C)NC(=O)[C@H](CC(C)C)N(C)C(=O)[C@H](C(C)C)NC(=O)[C@H](CC(C)C)N(C)C(=O)CN(C)C1=O [Compound 60] |  | ~0.01 |
| CC[C@@H]1NC(=O)[C@H]([C@H](O)[C@H](C)Cc2nc3cc(C(=O)N[C@@H](CS)C(=O)N[C@@H](CS)C(N)=O)ccc3[nH]2)N(C)C(=O)[C@H](C(C)C)N(C)C(=O)[C@H](CC(C)C)N(C)C(=O)[C@H](CC(C)C)N(C)C(=O)[C@@H](C)NC(=O)[C@H](C)NC(=O)[C@H](CC(C)C)N(C)C(=O)[C@H](C(C)C)NC(=O)[C@H](CC(C)C)N(C)C(=O)CN(C)C1=O [Compound 61] |  | ~0.01 |
| CC[C@@H]1NC(=O)[C@H]([C@H](O)[C@H](C)Cc2nc3cc(C(=O)N[C@@H](CO)C(=O)N[C@@H](CCC(=O)O)C(N)=O)ccc3[nH]2)N(C)C(=O)[C@H](C(C)C)N(C)C(=O)[C@H](CC(C)C)N(C)C(=O)[C@H](CC(C)C)N(C)C(=O)[C@@H](C)NC(=O)[C@H](C)NC(=O)[C@H](CC(C)C)N(C)C(=O)[C@H](C(C)C)NC(=O)[C@H](CC(C)C)N(C)C(=O)CN(C)C1=O [Compound 62] |  | 0.0044 |
| CC[C@@H]1NC(=O)[C@H]([C@H](O)[C@H](C)Cc2nc3cc(C(=O)N[C@@H](CCC(=O)O)C(=O)N[C@@H](CCC(=O)O)C(N)=O)ccc3[nH]2)N(C)C(=O)[C@H](C(C)C)N(C)C(=O)[C@H](CC(C)C)N(C)C(=O)[C@H](CC(C)C)N(C)C(=O)[C@@H](C)NC(=O)[C@H](C)NC(=O)[C@H](CC(C)C)N(C)C(=O)[C@H](C(C)C)NC(=O)[C@H](CC(C)C)N(C)C(=O)CN(C)C1=O [Compound 63] |  | 0.0051 |
| CC[C@@H]1NC(=O)[C@H]([C@H](O)[C@H](C)Cc2nc3cc(C(=O)NCCN4CCNCC4)ccc3[nH]2)N(C)C(=O)[C@H](C(C)C)N(C)C(=O)[C@H](CC(C)C)N(C)C(=O)[C@H](CC(C)C)N(C)C(=O)[C@@H](C)NC(=O)[C@H](C)NC(=O)[C@H](CC(C)C)N(C)C(=O)[C@H](C(C)C)NC(=O)[C@H](CC(C)C)N(C)C(=O)CN(C)C1=O [Compound 64] |  | 0.0172 |
| CC[C@@H]1NC(=O)[C@H]([C@H](O)[C@H](C)Cc2nc3cc(C(=O)Oc4ccccc4C(=O)O)ccc3[nH]2)N(C)C(=O)[C@H](C(C)C)N(C)C(=O)[C@H](CC(C)C)N(C)C(=O)[C@H](CC(C)C)N(C)C(=O)[C@@H](C)NC(=O)[C@H](C)NC(=O)[C@H](CC(C)C)N(C)C(=O)[C@H](C(C)C)NC(=O)[C@H](CC(C)C)N(C)C(=O)CN(C)C1=O [Compound 65] | > 10 | 0.0202 |
| CC[C@@H]1NC(=O)[C@H]([C@H](O)[C@H](C)Cc2nc3cc(C(=O)NCCOCCOCCNC(=O)[C@@H]4C[C@H](C(=O)O)C[C@H](C(=O)O)C4)ccc3[nH]2)N(C)C(=O)[C@H](C(C)C)N(C)C(=O)[C@H](CC(C)C)N(C)C(=O)[C@H](CC(C)C)N(C)C(=O)[C@@H](C)NC(=O)[C@H](C)NC(=O)[C@H](CC(C)C)N(C)C(=O)[C@H](C(C)C)NC(=O)[C@H](CC(C)C)N(C)C(=O)CN(C)C1=O [Compound 67] | > 10 | 0.0084 |
| CC[C@@H]1NC(=O)[C@H]([C@H](O)[C@H](C)Cc2nc3cc(C(=O)NCCOCCOCCNC(=O)CCC(=O)O)ccc3[nH]2)N(C)C(=O)[C@H](C(C)C)N(C)C(=O)[C@H](CC(C)C)N(C)C(=O)[C@H](CC(C)C)N(C)C(=O)[C@@H](C)NC(=O)[C@H](C)NC(=O)[C@H](CC(C)C)N(C)C(=O)[C@H](C(C)C)NC(=O)[C@H](CC(C)C)N(C)C(=O)CN(C)C1=O [Compound 68] | > 10 | 0.0085 |
